Laboratory results as given in the supplement of paper PMC10307832.

Key:
Assay in all cases: relative viability (nuclei count vs DMSO), 5 days (fraction); higher = more cells survive
GW-2580 + Bortezomib = compound: COC1=CC=C(C=C1)COC2=C(C=C(C=C2)CC3=CN=C(N=C3N)N)OC [GW-2580] + CC(C)C[C@H](NC(=O)[C@H](Cc1ccccc1)NC(=O)c1cnccn1)B(O)O [Bortezomib] (partner 0.002 µM)
Method in brief: (§1)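 Values are medians from duplicate plates. Each reflects relative viability, defined as the nuclei count of treated wells over that of vehicle wells. Lung cancer cell lines in 1536-well plates were pin-tool dosed one day after seeding with one drug alone or with a fixed anchor-drug dose plus five library-drug doses (not always all listed) in √10 steps, then fixed, stained and imaged at 4× after 5 days.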

GW-2580 + OSI-027 = compound: COC1=CC=C(C=C1)COC2=C(C=C(C=C2)CC3=CN=C(N=C3N)N)OC [GW-2580] + COc1cccc2cc(-c3nc([C@H]4CC[C@H](C(=O)O)CC4)n4ncnc(N)c34)[nH]c12 [OSI-027] (partner 0.5 µM)
Method in brief: as §1

Fedratinib + AZD7762 = compound: Cc1cnc(Nc2ccc(OCCN3CCCC3)cc2)nc1Nc1cccc(S(=O)(=O)NC(C)(C)C)c1 [Fedratinib] + NC(=O)Nc1cc(-c2cccc(F)c2)sc1C(=O)N[C@H]1CCCNC1 [AZD7762] (partner 0.2 µM)
Method in brief: as §1

GW-2580 + Pictilisib = compound: COC1=CC=C(C=C1)COC2=C(C=C(C=C2)CC3=CN=C(N=C3N)N)OC [GW-2580] + CS(=O)(=O)N1CCN(Cc2cc3nc(-c4cccc5[nH]ncc45)nc(N4CCOCC4)c3s2)CC1 [Pictilisib] (partner 1 µM)
Method in brief: as §1

GW-2580 + Olaparib = compound: COC1=CC=C(C=C1)COC2=C(C=C(C=C2)CC3=CN=C(N=C3N)N)OC [GW-2580] + O=C(c1cc(Cc2n[nH]c(=O)c3ccccc23)ccc1F)N1CCN(C(=O)C2CC2)CC1 [Olaparib] (partner 8 µM)
Method in brief: as §1

| Cell Line | relative viability (GW-2580 + Bortezomib; first compound 0.08 µM) | relative viability (GW-2580 + Bortezomib; first compound 0.8 µM) | relative viability (GW-2580 + Bortezomib; first compound 2.53 µM) | relative viability (GW-2580 + Bortezomib; first compound 8 µM) | relative viability (GW-2580 + OSI-027; first compound 0.08 µM) | relative viability (GW-2580 + OSI-027; first compound 0.8 µM) | relative viability (GW-2580 + OSI-027; first compound 2.53 µM) | relative viability (GW-2580 + OSI-027; first compound 8 µM) | relative viability (Fedratinib + AZD7762; first compound 0.1 µM) | relative viability (Fedratinib + AZD7762; first compound 0.3162 µM) | relative viability (Fedratinib + AZD7762; first compound 1 µM) | relative viability (GW-2580 + Pictilisib; first compound 0.08 µM) | relative viability (GW-2580 + Pictilisib; first compound 0.8 µM) | relative viability (GW-2580 + Pictilisib; first compound 2.53 µM) | relative viability (GW-2580 + Pictilisib; first compound 8 µM) | relative viability (GW-2580 + Olaparib; first compound 0.08 µM) | relative viability (GW-2580 + Olaparib; first compound 0.8 µM) | relative viability (GW-2580 + Olaparib; first compound 2.53 µM) | relative viability (GW-2580 + Olaparib; first compound 8 µM) |
| --- | --- | --- | --- | --- | --- | --- | --- | --- | --- | --- | --- | --- | --- | --- | --- | --- | --- | --- | --- |
| 201T | 1.15 | 1.12 | 1.11 | 1.14 | 0.647 | 0.994 | 1.09 | 0.797 | 0.753 | 0.531 | 0.593 | 0.601 | 0.701 | 0.67 | 0.68 | 0.896 | 0.73 | 0.887 | 0.794 |
| A549 |  |  |  |  |  |  |  |  |  |  |  | 0.575 | 0.491 | 0.486 | 0.303 | 0.396 | 0.527 | 0.267 | 0.301 |
| A-427 | 1.14 | 1.13 | 0.915 | 0.878 | 0.453 | 0.371 | 0.518 | 0.435 | 0.573 | 0.671 | 0.556 | 0.73 | 0.661 | 0.678 | 0.655 | 0.76 | 0.711 | 0.756 | 0.737 |
| ABC-1 | 0.295 | 0.324 | 0.287 | 0.306 | 0.471 | 0.533 | 0.502 | 0.53 | 0.741 | 0.877 | 0.792 | 0.761 | 0.564 | 0.571 | 0.679 | 0.774 | 0.634 | 1.43 | 0.824 |
| BEN | 0.674 | 0.879 | 0.55 | 0.799 | 0.281 | 0.273 | 0.267 | 0.31 | 0.623 | 0.553 | 0.568 | 0.612 | 0.602 | 0.451 | 0.515 | 0.877 | 1.12 | 1.03 | 0.962 |
| CAL-12T | 0.901 | 1.28 | 0.884 | 1.16 | 0.609 | 0.853 | 0.526 | 0.699 | 0.594 | 0.618 | 0.666 | 0.45 | 0.739 | 0.341 | 0.513 | 0.743 | 0.817 | 0.726 | 0.69 |
| COR-L23 | 1.2 | 1.21 | 0.929 | 1.2 | 1.01 | 0.994 | 0.655 | 0.753 |  |  |  | 0.834 | 0.969 | 0.695 | 0.888 | 0.422 | 0.375 | 0.294 | 0.406 |
| COR-L 105 | 0.829 | 0.99 | 0.67 | 0.797 | 0.662 | 0.807 | 0.713 | 0.676 |  |  |  | 0.36 | 0.404 | 0.353 | 0.375 | 0.658 | 0.633 | 0.909 | 0.68 |
| Calu-6 | 1.06 | 1.09 | 0.948 | 1.05 |  |  |  |  |  |  |  | 0.99 | 1.08 | 0.908 | 1.05 | 0.657 | 0.663 | 0.559 | 0.636 |
| ChaGo-K-1 | 0.996 | 1.09 | 0.989 | 1 | 0.625 | 0.548 | 0.532 | 0.575 | 0.921 | 0.829 | 0.81 | 0.735 | 1.15 | 0.526 | 0.655 | 0.423 | 0.457 | 0.388 | 0.393 |
| EBC-1 | 0.609 | 0.572 | 0.492 | 0.554 |  |  |  |  |  |  |  | 0.309 | 0.374 | 0.323 | 0.296 | 0.837 | 0.734 | 0.664 | 0.59 |
| EKVX | 1.09 | 1.12 | 0.874 | 1.01 | 0.692 | 0.755 | 0.73 | 0.67 | 0.738 | 0.815 | 0.656 | 0.395 | 0.448 | 0.395 | 0.5 | 0.905 | 0.986 | 0.812 | 0.89 |
| EMC-BAC-2 | 1.11 | 1.16 | 1.02 | 1.05 | 0.364 | 0.384 | 0.364 | 0.337 | 1.16 | 1.1 | 0.912 | 0.577 | 0.618 | 0.452 | 0.519 | 0.477 | 0.514 | 0.429 | 0.462 |
| EPLC-272H | 1.33 | 1.07 | 0.963 | 1.01 | 0.284 | 0.308 |  | 0.273 | 0.222 | 0.24 | 0.168 | 0.254 | 0.36 | 0.267 | 0.262 | 0.819 | 0.861 | 0.755 | 0.605 |
| H3255 | 0.542 | 0.998 | 0.579 | 0.749 | 0.577 | 0.606 | 0.622 | 0.595 | 0.809 | 0.858 | 0.794 | 0.534 | 0.471 | 0.419 | 0.464 | 0.618 | 0.607 | 0.566 | 0.508 |
| HARA | 1.2 | 1.17 | 1.33 | 1.31 | 0.504 | 0.452 | 0.491 | 0.395 | 0.429 | 0.28 | 0.23 | 0.459 | 0.513 | 0.344 | 0.405 | 0.624 | 1.19 | 0.895 | 0.726 |
| IA-LM | 0.967 | 0.574 | 0.912 | 0.865 |  |  |  |  |  |  |  | 0.315 | 0.324 | 0.398 | 0.405 | 0.844 | 1 | 0.853 | 0.756 |
| LK-2 |  |  |  |  | 0.208 | 0.19 | 0.208 | 0.189 | 0.286 | 0.393 | 0.293 | 0.476 | 0.569 | 0.428 | 0.552 | 0.625 | 0.732 | 0.612 | 0.775 |
